According to patent publication US10913727B2, “Modulators of the integrated stress pathway” (Calico Life Sciences LLC, priority 2016, dated 2021):

Test system: HEK293T cells carrying the ATF4 luciferase reporter
Assay: ATF4-Luc assay, in vitro model of Vanishing Cell White Matter Disease (VWMD)
Assay type: cell-based
Conditions: Homo sapiens, HEK-293T, 1 μg/mL tunicamycin, 7 hours, One Glo luminescence
In short: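 Reporter cells were stably generated by retroviral transduction and puromycin selection, then seeded at 30,000 cells/well. Next day, cells received 1 μg/mL tunicamycin with 200 nM test compound for 7 h, and luciferase luminescence was read with a one-step reagent. Values reported as EC50.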

First: CCc1noc(C(=O)NC23CC(NC(=O)COc4ccc(Cl)c(F)c4)(C2)C3)n1 [Compound 479, N-{3-[2-(4-chloro-3-fluorophenoxy)acetamido]bicyclo[1.1.1]pentan-1-yl}-3-ethyl-1,2,4-oxadiazole-5-carboxamide]
Second: Cc1nnsc1C(=O)NC12CC(NC(=O)COc3ccc(Cl)c(F)c3)(C1)C2 [Compound 845, N-{3-[2-(4-chloro-3-fluorophenoxy)acetamido]bicyclo[1.1.1]pentan-1-yl}-4-methyl-1,2,3-thiadiazole-5-carboxamide]
The EC50 of the first is lower: 50 to 250 nM for the first, greater than 2000 nM for the second. The first is the more potent here.

First: O=C(COc1ccc(Cl)c(F)c1)NC12CC(NS(=O)(=O)c3ccc(Cl)cn3)(C1)C2 [Compound 661, 2-(4-chloro-3-fluorophenoxy)-N-{3-[(5-chloropyridine-2-sulfonyl)amino]bicyclo[1.1.1]pentan-1-yl}acetamide]
Second: Cc1ccc(F)c(C(=O)NC23CC(NC(=O)COc4ccc(Cl)c(F)c4)(C2)C3)n1 [Compound 832, N-{3-[2-(4-chloro-3-fluorophenoxy)acetamido]bicyclo[1.1.1]pentan-1-yl}-3-fluoro-6-methylpyridine-2-carboxamide]
The EC50 of the first is higher: greater than 2000 nM for the first, 50 to 250 nM for the second.

`CC(C)(C)[Si](C)(C)OCCOc1ccc(C(=O)NC23CC(NC(=O)COc4ccc(Cl)c(F)c4)(C2)C3)cn1` [Compound 157, 6-(2-{[tert-butyl(dimethyl)silyl]oxy}ethoxy)-N-{3-[2-(4-chloro-3-fluorophenoxy)acetamido]bicyclo[1.1.1]pentan-1-yl}pyridine-3-carboxamide] and `COc1cc(C(=O)NC23CC(NC(=O)COc4ccc(Cl)c(F)c4)(C2)C3)ccn1` [Compound 763, N-{3-[2-(4-chloro-3-fluorophenoxy)acetamido]bicyclo[1.1.1]pentan-1-yl}-2-methoxypyridine-4-carboxamide] cannot be ordered by EC50: greater than 2000 nM for the first, greater than 2000 nM for the second.

Compared with `O=C(COc1ccc(Cl)c(F)c1)NC12CCC(Nc3nccn4cnnc34)(CC1)[C@H](O)C2` [Compound 464, 2-(4-chloro-3-fluorophenoxy)-N-{(3R)-3-hydroxy-4-[([1,2,4]triazolo[4,3-a]pyrazin-8-yl)amino]bicyclo[2.2.2]octan-1-yl}acetamide], `O=C(COc1ccc(Cl)c(F)c1)NC12CCC(NC(=O)c3cccc(F)c3)(CC1)[C@@H](O)C2` [Compound 488, N-{(2S)-4-[2-(4-chloro-3-fluorophenoxy)acetamido]-2-hydroxybicyclo[2.2.2]octan-1-yl}-3-fluorobenzamide] is lower in EC50: greater than 2000 nM for the first, 50 to 250 nM for the second. The second is the more potent here.

Compared with `Cc1ccc(C(=O)NC23CC(NC(=O)COc4ccc(Cl)c(F)c4)(C2)C3)cc1CO` [Compound 452, N-{3-[2-(4-chloro-3-fluorophenoxy)acetamido]bicyclo[1.1.1]pentan-1-yl}-3-(hydroxymethyl)-4-methylbenzamide], `Cc1nc2ccc(C(=O)NC34CC(NC(=O)COc5ccc(Cl)c(F)c5)(C3)C4)cc2nc1C` [Compound 779, N-{3-[2-(4-chloro-3-fluorophenoxy)acetamido]bicyclo[1.1.1]pentan-1-yl}-2,3-dimethylquinoxaline-6-carboxamide] is higher in EC50: 250 to 1000 nM for the first, greater than 2000 nM for the second.

First: COCC(=O)Nc1ccccc1C(=O)NC12CC(NC(=O)COc3ccc(Cl)c(F)c3)(C1)C2 [Compound 887, N-{3-[2-(4-chloro-3-fluorophenoxy)acetamido]bicyclo[1.1.1]pentan-1-yl}-2-(2-methoxyacetamido)benzamide]
Second: O=C(COc1ccc(Cl)c(F)c1)NC12CC(NC(=O)c3ccon3)(C1)C2 [Compound 820, N-{3-[2-(4-chloro-3-fluorophenoxy)acetamido]bicyclo[1.1.1]pentan-1-yl}-1,2-oxazole-3-carboxamide]
The EC50 of the first is lower: 250 to 1000 nM for the first, greater than 2000 nM for the second. The first is the more potent here.

`Cc1nc(C(=O)NC23CCC(NC(=O)COc4ccc(Cl)c(F)c4)(CC2)[C@@H](O)C3)cs1` [Compound 572, N-{(3S)-4-[2-(4-chloro-3-fluorophenoxy)acetamido]-3-hydroxybicyclo[2.2.2]octan-1-yl}-2-methyl-1,3-thiazole-4-carboxamide] and `O=C(COc1ccc(Cl)c(F)c1)NC12CCC(NC(=O)c3ccsc3)(CC1)CC2O` (centres unmarked) [Compound 591, N-{4-[2-(4-chloro-3-fluorophenoxy)acetamido]-3-hydroxybicyclo[2.2.2]octan-1-yl}thiophene-3-carboxamide] fall in the same range of EC50: 50 to 250 nM for the first, 50 to 250 nM for the second.

`O=C(COc1ccc(Cl)c(F)c1)NC12CC(NC(=O)c3ccc4nccnc4c3)(C1)C2` [Compound 766, N-{3-[2-(4-chloro-3-fluorophenoxy)acetamido]bicyclo[1.1.1]pentan-1-yl}quinoxaline-6-carboxamide] and `Cc1cc2c(C(=O)NC34CC(NC(=O)COc5ccc(Cl)c(F)c5)(C3)C4)nccn2n1` [Compound 561, N-{3-[2-(4-chloro-3-fluorophenoxy)acetamido]bicyclo[1.1.1]pentan-1-yl}-2-methylpyrazolo[1,5-a]pyrazine-4-carboxamide] cannot be ordered by EC50: greater than 2000 nM for the first, greater than 2000 nM for the second.

Going from `O=C(COc1ccc(Cl)c(F)c1)NC12CCC(NC(=O)c3cc(N4CCOCC4)ccn3)(CC1)CC2O` (centres unmarked) [Compound 935, N-{4-[2-(4-chloro-3-fluorophenoxy)acetamido]-3-hydroxybicyclo[2.2.2]octan-1-yl}-4-(morpholin-4-yl)pyridine-2-carboxamide] to `Cc1cc(C(=O)NC23CCC(NC(=O)COc4ccc(Cl)c(Cl)c4)(CC2)[C@@H](O)C3)on1` [Compound 759, N-{(3S)-4-[2-(3,4-dichlorophenoxy)acetamido]-3-hydroxybicyclo[2.2.2]octan-1-yl}-3-methyl-1,2-oxazole-5-carboxamide], the EC50 falls from greater than 2000 nM to less than 50 nM.

First: O=C(COc1ccc(Cl)c(F)c1)NC12CC(Nc3nnc(-c4ccc(Cl)cc4)o3)(C1)C2 [Compound 421, 2-(4-chloro-3-fluorophenoxy)-N-(3-{[5-(4-chlorophenyl)-1,3,4-oxadiazol-2-yl]amino}bicyclo[1.1.1]pentan-1-yl)acetamide]
Second: Cc1ncoc1C(=O)NC12CC(NC(=O)COc3ccc(Cl)c(F)c3)(C1)C2 [Compound 869, N-{3-[2-(4-chloro-3-fluorophenoxy)acetamido]bicyclo[1.1.1]pentan-1-yl}-4-methyl-1,3-oxazole-5-carboxamide]
The EC50 of the first is lower: 250 to 1000 nM for the first, greater than 2000 nM for the second.

`O=C(COc1ccc(Cl)c(F)c1)NC12CC(Nc3cncc(N4CCOCC4)n3)(C1)C2` [Compound 744, 2-(4-chloro-3-fluorophenoxy)-N-(3-{[6-(morpholin-4-yl)pyrazin-2-yl]amino}bicyclo[1.1.1]pentan-1-yl)acetamide] and `CC(C)c1cc(C(=O)NC23CC(NC(=O)COc4ccc(Cl)c(F)c4)(C2)C3)on1` [Compound 350, N-{3-[2-(4-chloro-3-fluorophenoxy)acetamido]bicyclo[1.1.1]pentan-1-yl}-3-(propan-2-yl)-1,2-oxazole-5-carboxamide] fall in the same range of EC50: 250 to 1000 nM for the first, 250 to 1000 nM for the second.

`O=C(COc1ccc(Cl)c(Cl)c1)NC12CC(NC(=O)c3ccc(OC(F)(F)F)nc3)(C1)C2` [Compound 147, N-{3-[2-(3,4-dichlorophenoxy)acetamido]bicyclo[1.1.1]pentan-1-yl}-6-(trifluoromethoxy)pyridine-3-carboxamide] and `O=C(COc1ccc2c(c1)OC(F)(F)O2)NC12CC(NC(=O)c3ccc(OC(F)(F)F)nc3)(C1)C2` [Compound 379, N-(3-{2-[(2,2-difluoro-2H-1,3-benzodioxol-5-yl)oxy]acetamido}bicyclo[1.1.1]pentan-1-yl)-6-(trifluoromethoxy)pyridine-3-carboxamide] fall in the same range of EC50: 50 to 250 nM for the first, 50 to 250 nM for the second.

First: O=C(COc1ccc(Cl)c(Cl)c1)NC12CC(NC(=O)c3cc(CCO)ccn3)(C1)C2 [Compound 281, N-{3-[2-(3,4-dichlorophenoxy)acetamido]bicyclo[1.1.1]pentan-1-yl}-4-(2-hydroxyethyl)pyridine-2-carboxamide]
Second: Cc1cnc(C(=O)NC23CC(NC(=O)COc4ccc(Cl)cc4)(C2)C3)cn1 [Compound 136, N-{3-[2-(4-chlorophenoxy)acetamido]bicyclo[1.1.1]pentan-1-yl}-5-methylpyrazine-2-carboxamide]
The EC50 of the first is lower: 50 to 250 nM for the first, 250 to 1000 nM for the second. The first is the more potent here.
